Patent publication US9410158B2, “Genetically modified yeast species, and fermentation processes using genetically modified yeast” (Cargill Incorporated, priority 2003, dated 2016)

Test system: xylose isomerase enzyme (PXYLA)
Experiment: Inhibition of PXYLA activity in strain CD861 using xylitol (Ex. 8E)
Format: biochemical, Piromyces sp. E2
Description: Strain CD861 was grown in xylose media containing varying concentrations of xylitol, a known xylose isomerase inhibitor.

## OC[C@@H](O)[C@H](O)[C@@H](O)CO [xylitol]
Xylitol increased from 0 to 0.25 mM
  change of Km for the xylose isomerase enzyme: doubled
Xylitol increased to 0.50 mM
  change of Km for the xylose isomerase enzyme: doubled again
